Data: article PMC4655838, “Versatility in phospho-dependent molecular recognition of the XRCC1 and XRCC4 DNA-damage scaffolds by aprataxin-family FHA domains” (DNA Repair, 2015)
Read-outs that look alike come from different tables or passages of the source. Peptide text beside a SMILES is read from it.

How the values were obtained:
Assay type in all cases: binding
[1] = target: T1, wild-type aprataxin FHA domain (Homo sapiens, UniProt Q7Z2E3); experiment: ITC of wild-type aprataxin FHA domain with XRCC1 and XRCC4 phosphopeptides; details: 22 °C, 50 mM HEPES pH 7.5, 150 mM NaCl, 5 mM β-mercaptoethanol, peptide in syringe, XRCC1 peptides 1 mM into 100 μM protein, XRCC4 peptides 300 μM into 30 μM protein, single-site model, representative of triplicate
T1 construct: aprataxin residues 1–105; GST (pGEX-6P-1) (N, cleaved yes); made in house; host or cells: Escherichia coli BL21 (DE3)
Description: (§1) The genes for aprataxin residues 1–105 and APLF residues 1–106 were amplified using primer sets which incorporated 5′ BamHI and 3′ XhoI sites. PCR products and pGEX-6P-1 vector were digested with BamHI and XhoI and religated. All point mutations were generated using a QuickChange Site-Directed Mutagenesis Kit (Stratagene) following the manufacturer's recommended protocol.
(§2) For expression, the pGEX-6P-1/aprataxin-FHA constructs were transformed into Escherichia coli strain BL21 (DE3) and the pGEX-6P-1/APLF-FHA constructs transformed into the strain Rosetta2 (DE3). Cells were grown in LB at 37 °C to an A600 of 0.5, induced with 0.4 mM isopropyl 1-thio-β-D-galactopyranoside and incubated at 18 °C for a further 16 h before harvesting. Cells were lysed by sonication and clarified by centrifugation (20,000 × g × 30 min). The supernatant was applied to a glutathione-4B resin (Amersham) and cleaved from the resin with rhinovirus 3C protease. Proteins were purified further by gel-filtration chromatography on a Superdex 75 matrix in 20 mM Tris pH 7.5, 150 mM NaCl, 5 mM DTT. Selenomethionine-labelled APLF L91 M protein was expressed in Rosetta2 (DE3) cells cultured in SelenoMet base media and nutrients supplemented with seleno-methionine solution (Molecular Dimensions Ltd.) and purified as the wild-type protein.
(§3) Phosphopeptides based on the XRCC1 sequence 515-YAGSTDENTDSEEHQ-529 and the XRCC4 sequence 229-YDESTDEES-237 were synthesised with amidated C-termini to avoid potential end-effects of a free carboxy-terminus by Dr. W. Mawby (University of Bristol), purified by HPLC and characterised by mass spectrometry. FHA-phosphopeptide binding was quantified by isothermal titration calorimetry using a Microcal Omega VP-ITC calorimeter (MicroCal Inc., Northampton, MA). Protein was dialysed against ITC buffer (50 mM HEPES pH 7.5, 150 mM NaCl, 5 mM β-mercaptoethanol) and peptides were dissolved in the dialysis buffer. Experiments were carried out at 22 °C and involved 30 successive 10 μl injections of peptide solution into a sample cell containing protein solution. Titrations with XRCC1 peptides used peptide at 1 mM and protein at 100 μM and titrations with XRCC4 peptides used peptide at 300 μm and protein at 30 μM. Heats of dilution were subtracted and binding isotherms were plotted and analysed with MicroCal origin version 7.0, assuming a single-site binding model.

[2] = target: T2, K38A Mutant of aprataxin FHA domain (Homo sapiens, UniProt Q7Z2E3, K52A); experiment: ITC of K38A mutant of aprataxin FHA domain with XRCC1 and XRCC4 phosphopeptides; details: 22 °C, 50 mM HEPES pH 7.5, 150 mM NaCl, 5 mM β-mercaptoethanol, single-site model
T2 construct: aprataxin residues 1–105; GST (pGEX-6P-1) (N, cleaved yes); made in house; host or cells: Escherichia coli BL21 (DE3)
Description: as §1, §2, §3

[3] = target: T3, R42A Mutant of aprataxin FHA domain (Homo sapiens, UniProt Q7Z2E3, R56A); experiment: ITC of R42A mutant of aprataxin FHA domain with XRCC1 and XRCC4 phosphopeptides; details: 22 °C, 50 mM HEPES pH 7.5, 150 mM NaCl, 5 mM β-mercaptoethanol, single-site model
T3 construct: aprataxin residues 1–105; GST (pGEX-6P-1) (N, cleaved yes); made in house; host or cells: Escherichia coli BL21 (DE3)
Description: as §1, §2, §3

aprataxin FHA domain = target: T4, aprataxin FHA domain (Homo sapiens, UniProt Q7Z2E3); experiment: NMR (1H-SOFAST-HMQC) titrations of aprataxin FHA domain with XRCC1 phosphopeptides; details: NMR titration, 22 °C
T4 construct: aprataxin residues 1–105; GST (pGEX-6P-1) (N, cleaved yes); made in house; host or cells: Escherichia coli BL21 (DE3)
Experimental: NMR experiments were carried out at 22 °C on Bruker Avance II+ 600 MHz and Avance III 700 MHz spectrometers, each equipped with a cryogenic triple-resonance probe. Protein and peptides were prepared in NMR buffer (20 mM Na Acetate pH 5.8, 50 mM NaCl, 2 mM DTT). Three-dimensional HNCA, HNCO, HNCACB and CBCA(CO)NH experiments were performed to obtain backbone assignments. NMR titration experiments were carried out by adding the unlabelled XRCC1 peptides to ^15N-labeled aprataxin FHA domain. The initial protein concentration was 92 μM and volumes of 2 mM stock solution of peptide were added until the protein:peptide ratio was 1:4. ^1H-SOFAST-HMQC [36] spectra were measured after each titration step. All spectra were processed using nmrPipe, and analysed using CARA/NEASY [38]. The weighted chemical shift change (in ppm units) of each amide proton (ΔδHN) and nitrogen (ΔδN) was calculated according to the equation: Δδtotal = [(ΔδHNWHN)^2 + (ΔδNWN)^2]^1/2 with WHN = 1 and WN = 0.154 [39]. Weighted chemical shifts for residues D37, V45, Q46, V61 and V63 were plotted against peptide concentration to determine individual Kds and averaged to determine the apparent Kd.

[4] = 20 mM Na Acetate pH 5.8, 50 mM NaCl, 2 mM DTT, 92 µM 15N aprataxin FHA, 2 mM peptide stock, read-out: Kd from weighted chemical shift of residue Asp37
[5] = pH 5.8, 92 µM aprataxin FHA, read-out: Kd from weighted chemical shift of residue Gln46
[6] = pH 5.8, 92 µM aprataxin FHA, read-out: Kd from weighted chemical shift of residue Val45
[7] = pH 5.8, 92 µM aprataxin FHA, read-out: Kd from weighted chemical shift of residue Val61
[8] = pH 5.8, 92 µM aprataxin FHA, read-out: Kd from weighted chemical shift of residue Val63

T4 sequence (Q7Z2E3 15-119): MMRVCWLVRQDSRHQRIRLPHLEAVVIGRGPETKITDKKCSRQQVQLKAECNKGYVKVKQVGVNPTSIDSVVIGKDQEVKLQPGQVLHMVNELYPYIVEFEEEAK
T1 sequence (Q7Z2E3 15-119): as above
T2 sequence (Q7Z2E3 15-119 K52A): as the sequence (Q7Z2E3 15-119) above, with K38A counted along it
T3 sequence (Q7Z2E3 15-119 R56A): as the sequence (Q7Z2E3 15-119) above, with R42A counted along it

| Compound | Kd [1] [µM] | Kd [2] [µM] | Kd [3] [µM] | Kd (aprataxin FHA domain; [4]) [µM] | Kd (aprataxin FHA domain; [5]) [µM] | Kd (aprataxin FHA domain; [6]) [µM] | Kd (aprataxin FHA domain; [7]) [µM] | Kd (aprataxin FHA domain; [8]) [µM] | Kd (aprataxin FHA domain; pH 5.8, tighter binders not well defined due to high protein concentration, read-out: overall apparent affinity (Kdapp) estimated from NMR titrations) [µM] |
| --- | --- | --- | --- | --- | --- | --- | --- | --- | --- |
| C[C@H](NC(=O)[C@@H](N)Cc1ccc(O)cc1)C(=O)NCC(=O)N[C@@H](CO)C(=O)N[C@H](C(=O)N[C@@H](CC(=O)O)C(=O)N[C@@H](CCC(=O)O)C(=O)N[C@@H](CC(N)=O)C(=O)N[C@H](C(=O)N[C@@H](CC(=O)O)C(=O)N[C@@H](COP(=O)(O)O)C(=O)N[C@@H](CCC(=O)O)C(=O)N[C@@H](CCC(=O)O)C(=O)N[C@@H](Cc1c[nH]cn1)C(=O)N[C@@H](CCC(N)=O)C(N)=O)[C@@H](C)OP(=O)(O)O)[C@@H](C)O [YAGSTDENpTDpSEEHQ] (HELM PEPTIDE1{Y.A.G.S.T.D.E.N.[C[C@@H](OP(=O)(O)O)[C@H](N[*:1])C(=O)[*:2]].D.[O=C([C@H](COP(=O)(O)O)N[*:1])[*:2]].E.E.H.Q.[am]}$$$$V2.0) | 33 ± 0.87 |  |  |  |  |  |  |  |  |
| C[C@H](NC(=O)[C@@H](N)Cc1ccc(O)cc1)C(=O)NCC(=O)N[C@@H](CO)C(=O)N[C@H](C(=O)N[C@@H](CC(=O)O)C(=O)N[C@@H](CCC(=O)O)C(=O)N[C@@H](CC(N)=O)C(=O)N[C@H](C(=O)N[C@@H](CC(=O)O)C(=O)N[C@@H](CO)C(=O)N[C@@H](CCC(=O)O)C(=O)N[C@@H](CCC(=O)O)C(=O)N[C@@H](Cc1c[nH]cn1)C(=O)N[C@@H](CCC(N)=O)C(N)=O)[C@@H](C)O)[C@@H](C)OP(=O)(O)O [YAGSpTDENTDSEEHQ] (HELM PEPTIDE1{Y.A.G.S.[C[C@@H](OP(=O)(O)O)[C@H](N[*:1])C(=O)[*:2]].D.E.N.T.D.S.E.E.H.Q.[am]}$$$$V2.0) | 17 ± 0.4 | 46 ± 2 | ≥ 100 | 9.6 | 5.3 | 8.1 | 4.2 | 6.8 |  |
| C[C@@H](OP(=O)(O)O)[C@H](NC(=O)[C@H](CO)NC(=O)[C@H](CCC(=O)O)NC(=O)[C@H](CC(=O)O)NC(=O)[C@@H](N)Cc1ccc(O)cc1)C(=O)N[C@@H](CC(=O)O)C(=O)N[C@@H](CCC(=O)O)C(=O)N[C@@H](CCC(=O)O)C(=O)N[C@@H](CO)C(N)=O [YDESpTDEES] (HELM PEPTIDE1{Y.D.E.S.[C[C@@H](OP(=O)(O)O)[C@H](N[*:1])C(=O)[*:2]].D.E.E.S.[am]}$$$$V2.0) | 2.1 ± 0.08 | 6.8 ± 0.5 | ≥ 100 |  |  |  |  |  |  |
| C[C@H](NC(=O)[C@@H](N)Cc1ccc(O)cc1)C(=O)NCC(=O)N[C@@H](CO)C(=O)N[C@H](C(=O)N[C@@H](CC(=O)O)C(=O)N[C@@H](CCC(=O)O)C(=O)N[C@@H](CC(N)=O)C(=O)N[C@H](C(=O)N[C@@H](CC(=O)O)C(=O)N[C@@H](CO)C(=O)N[C@@H](CCC(=O)O)C(=O)N[C@@H](CCC(=O)O)C(=O)N[C@@H](Cc1c[nH]cn1)C(=O)N[C@@H](CCC(N)=O)C(N)=O)[C@@H](C)OP(=O)(O)O)[C@@H](C)O [YAGSTDENpTDSEEHQ] (HELM PEPTIDE1{Y.A.G.S.T.D.E.N.[C[C@@H](OP(=O)(O)O)[C@H](N[*:1])C(=O)[*:2]].D.S.E.E.H.Q.[am]}$$$$V2.0) | 42 ± 3.8 |  |  | 7.6 | 5.9 | 9.8 | 4 | 7.9 | 7 |
